# Literature values as cited in patent US8785470B2, “Heterocyclic compounds and uses thereof” (Infinity Pharmaceuticals, Inc., priority 2011, dated 2014).
# Tested on: leukemic cells from p190 transduced cultures
# Settings: about 70 mg/kg twice daily; cited from earlier work
smiles,measurement,value
Cc1ccc(NC(=O)c2ccc(CN3CCN(C)CC3)cc2)cc1Nc1nccc(-c2cccnc2)n1 [imatinib],leukemogenesis,delay but not cure leukemogenesis
